# US9139532B2, “Pyrazolyl guanidine F1F0-atpase inhibitors and therapeutic uses thereof” (Lycera Corporation, priority 2010, dated 2015)
# Like-named read-outs stand apart in the source and are kept apart here.
# Assays:
# F1F0-ATPase = target: T1, F1F0-ATPase (Bos taurus, UniProt P13621); test: Inhibition of F1F0-ATPase activity in synthesizing ATP; format: biochemical; conditions: inhibition of ATP synthesis by F1F0-ATPase; read-out: ATP Syn IC50
# T1 construct: from tissue
# Ramos cells = test: Cytotoxicity in Ramos cells; format: cell-based; conditions: cytotoxicity in Ramos cells, read-out: Ramos Cell EC50
Compound,IC50 (F1F0-ATPase),EC50 (Ramos cells; Homo sapiens),EC50 (Ramos cells)
CCOC[C@H](C)N/C(=N/C(=O)c1ccc(Cl)c(F)c1)Nc1cc(C)[nH]n1 [Compound A-180],< 10 µM,–,> 10 µM
Cc1cc(NC(=NC(=O)c2ccc(Cl)c(F)c2)NC(C)(C)C)[nH]n1 [Compound A-181],< 10 µM,< 10 µM,–
Cc1cc(N/C(=N\C(=O)c2ccc(C(F)(F)F)cc2)NCCC(F)(F)F)n[nH]1 [Compound A-183],< 10 µM,–,< 10 µM
Cc1cc(N/C(=N\C(=O)c2ccc(C(F)(F)F)cc2)NC2CCCC2)n[nH]1 [Compound A-185],< 10 µM,–,< 10 µM
Cc1cc(N/C(=N\C(=O)c2ccc(F)c(F)c2)NCC(C)(C)C)n[nH]1 [Compound A-187],< 10 µM,–,< 10 µM
O=C(/N=C(\Nc1cc(-c2ccc(F)cc2)[nH]n1)NC1CC1)c1ccc(F)cc1 [Compound A-193],< 10 µM,–,> 10 µM
CC1(CN/C(=N/C(=O)c2ccc(F)cc2)Nc2cc(-c3ccc(F)cc3)n[nH]2)COC1 [Compound A-196],< 10 µM,–,< 10 µM
O=C(/N=C(\Nc1cc(-c2cc(F)cc(F)c2)n[nH]1)NC1COC1)c1ccc(F)c(F)c1 [Compound A-197],< 10 µM,–,< 10 µM
CC1(CN/C(=N/C(=O)c2cccc(F)c2)Nc2cc(-c3ccc(F)cc3)n[nH]2)CCCO1 (stereo not shown) [Compound A-201],< 10 µM,–,> 10 µM
O=C(/N=C(\Nc1cc(-c2ccc(F)cc2)n[nH]1)NC1CC1)c1cccc(F)c1 [Compound A-202],< 10 µM,–,> 10 µM
CCC(C)N/C(=N/C(=O)c1ccc(F)cc1)Nc1cc(-c2ccc(C)c(F)c2)n[nH]1 (stereo not shown) [Compound A-203],< 10 µM,< 10 µM,–
COC[C@H](C)N/C(=N/C(=O)c1ccc(F)cc1)Nc1cc(-c2ccc(C)c(F)c2)n[nH]1 [Compound A-205],< 10 µM,< 10 µM,–

# The next lines start with results.
IC50 (F1F0-ATPase),Compound,EC50 (Ramos cells; Homo sapiens),EC50 (Ramos cells)
> 10 µM,Cc1cc(NC(=NC(=O)c2ccc(Cl)c(F)c2)NCCC(F)(F)F)[nH]n1 [Compound A-179],> 10 µM,–
< 10 µM,COc1ccc(C(=O)/N=C(/NCC(C)C)Nc2cc(-c3ccc(F)cc3)[nH]n2)cn1 [Compound A-182],–,< 10 µM
> 10 µM,CCOCCCN/C(=N/C(=O)c1ccc(C(F)(F)F)cc1)Nc1cc(C)[nH]n1 [Compound A-184],–,> 10 µM
> 10 µM,Cc1cc(N/C(=N\C(=O)c2ccc(F)c(F)c2)NCCC(F)(F)F)n[nH]1 [Compound A-186],–,> 10 µM
< 10 µM,Cc1cc(N/C(=N\C(=O)c2ccc(F)c(F)c2)NC2CCCC2)n[nH]1 [Compound A-188],–,> 10 µM
< 10 µM,Cc1cc(N/C(=N\C(=O)c2ccc(C(F)(F)F)cc2)NCC(C)C)n[nH]1 [Compound A-189],–,< 10 µM
> 10 µM,Cc1cc(N/C(=N\C(=O)c2ccc(C(F)(F)F)cc2)NC(C)C)n[nH]1 [Compound A-190],–,> 10 µM
> 10 µM,Cc1cc(N/C(=N\C(=O)c2ccc(F)c(F)c2)NCC(C)C)n[nH]1 [Compound A-191],–,> 10 µM
< 10 µM,Cc1cc(N/C(=N\C(=O)c2ccc(F)c(F)c2)NC(C)(C)C)n[nH]1 [Compound A-192],–,< 10 µM
< 10 µM,Cc1ccc(-c2cc(N/C(=N\C(=O)c3ccc(C(F)(F)F)cc3)NC3CC3)[nH]n2)cc1F [Compound A-195],–,< 10 µM
< 10 µM,O=C(/N=C(\Nc1cc(-c2cc(F)cc(F)c2)n[nH]1)NC1CC1)c1ccc(F)c(F)c1 [Compound A-198],–,< 10 µM
< 10 µM,O=C(/N=C(\Nc1cc(-c2ccc(F)cc2)n[nH]1)NC1COC1)c1ccc(F)c(F)c1 [Compound A-199],–,> 10 µM
< 10 µM,CC1(CN/C(=N/C(=O)c2ccc(F)c(F)c2)Nc2cc(-c3ccc(F)cc3)n[nH]2)COC1 [Compound A-200],–,> 10 µM
< 10 µM,CCC(C)N/C(=N/C(=O)c1ccc(F)cc1)Nc1cc(-c2ccc(F)cc2)n[nH]1 (stereo not shown) [Compound A-206],< 10 µM,–
